Legend:
Bcl-2-related protein A1 = molecular target: T1, Bcl-2-related protein A1 (Homo sapiens, UniProt Q16548); test: Inhibition of human recombinant N-terminal his tagged Bfl-1 (1 to 151 residues) expressed in Escherichia coli BL21-Gold (DE3) cells using HyLite Fluor 647-labeled BIM peptide as substrate incubated for 120 mins by TR-FRET assay
T1 sequence (Q16548 whole entry): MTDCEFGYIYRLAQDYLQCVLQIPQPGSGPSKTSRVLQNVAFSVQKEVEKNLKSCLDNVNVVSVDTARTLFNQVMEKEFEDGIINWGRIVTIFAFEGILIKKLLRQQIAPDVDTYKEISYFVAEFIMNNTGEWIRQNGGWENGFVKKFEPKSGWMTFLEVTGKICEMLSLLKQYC

[1] = Lipophilicity, logD of compound at pH 7.4 by shake-flask method; format: physicochemical; conditions: buffer
[2] = GSH reactivity assessed as half life at pH 7.4 incubated for 24 hrs by LC-UV-MS analysis; format: physicochemical; conditions: glutathione (GSH) solution
[3] = molecular target: T2, Bcl-2-related protein A1 (Homo sapiens) (UniProt Q16548); test: Binding affinity to N-terminal His6-tagged recombinant human Bfl-1 (1 to 151 residues) expressed in Escherichia coli BL21-Gold (DE3) cells assessed as Kinact/ki incubated for 10 to 90 mins by MS analysis; conditions: time 10-90 min
T2 sequence (whole entry): T1 sequence (Q16548 whole entry)

Compound	IC50 (Bcl-2-related protein A1)	logD [1]	half-life [2]	K [3]
C=CC(=O)N1CCC[C@@H]1c1ccccc1	480 µM	1.7	13.7 h	0.7 M⁻¹ s⁻¹
C=CC(=O)N1C[C@@H](Oc2cc(Cl)c(F)cc2C#N)[C@H]1CCC (racemic)	10.4 µM	–	–	9.5 M⁻¹ s⁻¹
C=CC(=O)N(Cc1ccccc1OCC(N)=O)c1ccc(Cl)cc1	16.8 µM	–	–	5.5 M⁻¹ s⁻¹

Next, values leading:

IC50 (Bcl-2-related protein A1)	logD [1]	half-life [2]	K [3]	Compound
90.9 µM	–	–	0.8 M⁻¹ s⁻¹	C=CC(=O)N(C)[C@@H](c1ccc(Cl)cc1)C1CCOCC1 (racemic)
18 µM	–	–	6.8 M⁻¹ s⁻¹	C=CC(=O)Nc1cc(CN2CCCC2)ccc1-c1ccc(OC)cc1C
23.4 µM	–	–	7.5 M⁻¹ s⁻¹	C=CC(=O)N(Cc1ccc(OC)cc1)c1cccc(Cl)c1
